Patent publication US6440967B1, “Combination of a GABAA alpha 5 inverse agonist and COX-2 inhibitor, NSAID, estrogen or vitamin E” (Merck & Co., Inc., priority 1998, dated 2002)

melting point: 247.5 to 249 °C
SMILES: Cc1cc(-c2nnc3c4ccccc4c(OCc4cccc(Br)n4)nn23)no1 [Reference Example 2, 6-(6-Bromopyridin-2-yl)methyloxy-3-(5-methylisoxazol-3-yl)-1,2,4-triazolo[3,4-a]phthalazine]
